# According to patent US20220162182A1, “KINASE INHIBITOR COMPOUNDS AND COMPOSITIONS AND METHODS OF USE” (ICAHN SCHOOL OF MEDICINE AT MOUNT SINAI, priority 2018, published 2022):
# Where “and” joins values, the source holds several entries; their conditions need not be identical. Identical values can stand only once. Counter-ions that a name gives are not always drawn.
# Biological target: T1, DYRK1/DYRK1A (Homo sapiens, UniProt Q13627)
# T1 construct: purchased Reaction Biology Corp
# Assay: DYRK1/DYRK1A IC50 assay (Reaction Biology Corp.)
# Assay type: biochemical
# Details: DYRK1/DYRK1A assay from Reaction Biology Corp.
row,IC50,Structure (SMILES)
1,0.52 nM,"O=c1[nH]c2ccc(-c3cncc(NCc4ccccc4)c3)cc2n1-c1ccccn1 [Compound 61f, 6-(5-(Benzylamino)pyridin-3-yl)-1-(pyridin-2-yl)-1H-benzo[d]imidazol-2(3H)-one]"
2,6.47 nM,"O=c1[nH]c2ccc(-c3cncc(NCc4ccccc4)c3)cc2n1-c1cccnc1 [Compound 61g, 6-(5-(Benzylamino)pyridin-3-yl)-1-(pyridin-3-yl)-1H-benzo[d]imidazol-2(3H)-one]"
3,3.47 nM,"COCCOc1cccc(-n2c(=O)[nH]c3ccc(-c4cncc(NCc5ccccc5)c4)cc32)c1 [Compound 61j, 6-(5-(Benzylamino)pyridin-3-yl)-1-(3-(2-methoxyethoxy)phenyl)-1H-benzo[d]imidazol-2(3H)-one]"
4,38 nM,"COCCOc1ccc(-n2c(=O)[nH]c3ccc(-c4cncc(NCc5ccccc5)c4)cc32)cc1 [Compound 61k, 6-(5-(Benzylamino)pyridin-3-yl)-1-(4-(2-methoxyethoxy)phenyl)-1H-benzo[d]imidazol-2(3H)-one]"
5,42.8 nM,"CC(C)(C)OC(=O)NCCOCCOc1cccc(-n2c(=O)[nH]c3ccc(-c4cncc(NCc5ccccc5)c4)cc32)c1 [Compound 61m, tert-Butyl (2-(2-(3-(6-(5-(benzylamino)pyridin-3-yl)-2-oxo-2,3-dihydro-1H-benzo[d]imidazol-1-yl)phenoxy)ethoxy)ethyl)carbamate]"
6,7.12 nM,"NCCOc1cccc(-n2c(=O)[nH]c3ccc(-c4cncc(NCc5ccccc5)c4)cc32)c1 [Compound 61n, 1-(3-(2-Aminoethoxy)phenyl)-6-(5-(benzylamino)pyridin-3-yl)-1H-benzo[d]imidazol-2(3H)-one hydrochloride]"
7,3.9 nM,"NCCOCCOc1cccc(-n2c(=O)[nH]c3ccc(-c4cncc(NCc5ccccc5)c4)cc32)c1 [Compound 61o, 1-(3-(2-(2-Aminoethoxy)ethoxy)phenyl)-6-(5-(benzylamino)pyridin-3-yl)-1H-benzo[d]imidazol-2(3H)-one hydrochloride]"
8,99.9 nM,"Cn1c(=O)[nH]c2ccc(-c3cc(NCc4ccccc4)c[n+]([O-])c3)cc21 [Compound 69a, 3-(Benzylamino)-5-(3-methyl-2-oxo-2,3-dihydro-1H-benzo[d]imidazol-5-yl)pyridine 1-oxide]"
9,45.2 nM,"O=c1[nH]c2ccc(-c3cc(NCc4ccccc4)c[n+]([O-])c3)cc2[nH]1 [Compound 69b, 3-(Benzylamino)-5-(2-oxo-2,3-dihydro-1H-benzo[d]imidazol-5-yl)pyridine 1-oxide]"
10,0.286 nM,C[C@H](Nc1cncc(-c2ccc3[nH]c(=O)n(C)c3c2)c1)c1ccccc1 [Compound 69c]
11,2100 nM,"Cc1ncc(NCc2ccccc2)cc1-c1ccc2[nH]c(=O)[nH]c2c1 [Compound 74a, 5-(5-(Benzylamino)-2-methylpyridin-3-yl)-1H-benzo[d]imidazol-2(3H)-one]"
12,8580 nM,"O=c1[nH]c2ccc(-c3ccncc3NCc3ccccc3)cc2[nH]1 [Compound 74b, 5-(3-(Benzylamino)pyridin-4-yl)-1H-benzo[d]imidazol-2(3H)-one]"
13,1690 nM,"O=c1[nH]c2ccc(-c3cnccc3NCc3ccccc3)cc2[nH]1 [Compound 74c, 5-(4-(Benzylamino)pyridin-3-yl)-1H-benzo[d]imidazol-2(3H)-one]"
14,103 nM,"CC(C)(C)OC(=O)NCCOc1cccc(-n2c(=O)[nH]c3ccc(-c4cncc(NCc5ccccc5)c4)cc32)c1 [Compound 611, tert-Butyl (2-(3-(6-(5-(benzylamino)pyridin-3-yl)-2-oxo-2,3-dihydro-1H-benzo[d]imidazol-1-yl)phenoxy)ethyl)carbamate]"

# Biological target: T2, DYRK1A (Homo sapiens, UniProt Q13627)
# T2 construct: purchased DiscoverX
# Assay: KINOMEscan DYRK1A binding assay (DiscoverX), Kd determination
# Details: eleven serial three fold dilutions, highest concentration 60 μM, several values in a cell = repeat determinations
# Procedure: Compounds were tested for DYRK1A binding activity at DiscoverX. DiscoverX uses proprietary KINOMEscan® Assay (Fabian et al., “A Small Molecule-kinase Interaction Map for Clinical Kinase Inhibitors,” Nat. Biotechnol. 23(3):329-336 (2005), which is hereby incorporated by reference in its entirety). Compounds were screened for DYRK1A activity at a single concentration of 3 μM in duplicates. Similarly, the dissociation constant Kd of the hit compounds from the initial screening was determined at DiscoverX using their proprietary KINOMEscan® Assay. Kd values are determined using eleven serial three fold dilutions with the highest concentration of 60 μM.
row,Structure (SMILES),Kd
1,"O=c1[nH]c2ccc(-c3ccc(NCc4ccccc4)nc3)cc2[nH]1 [Compound 11a, 5-(6-(Benzylamino)pyridin-3-yl)-1H-benzo[d]imidazol-2(3H)-one]",300 nM
2,"O=c1[nH]c2ccc(-c3ccc(NCc4ccc(F)cc4)nc3)cc2[nH]1 [Compound 11b, 5-(6-((4-Fluorobenzyl)amino)pyridin-3-yl)-1H-benzo[d]imidazol-2(3H)-one]",580 nM and 510 nM
3,"O=c1[nH]c2ccc(-c3ccc(NCc4ccc(F)cc4)cn3)cc2[nH]1 [Compound 11c, 5-(5-((4-Fluorobenzyl)amino)pyridin-2-yl)-1H-benzo[d]imidazol-2(3H)-one]",6000 nM
4,"Cn1c(=O)[nH]c2ccc(-c3cncc(NCc4ccccc4)c3)cc21 [Compound 12b, 6-(5-(Benzylamino)pyridin-3-yl)-1-methyl-1H-benzo[d]imidazol-2(3H)-one]",0.82 nM and 1.6 nM
5,"Cn1c(=O)[nH]c2cc(-c3cncc(NCc4ccccc4)c3)ccc21 [Compound 12c, 5-(5-(Benzylamino)pyridin-3-yl)-1-methyl-1H-benzo[d]imidazol-2(3H)-one]",2000 nM
6,"Cc1ncc(-c2ccc3[nH]c(=O)[nH]c3c2)cc1NCc1ccccc1 [Compound 13c, 5-(5-(Benzylamino)-6-methylpyridin-3-yl)-1H-benzo[d]imidazol-2(3H)-one]",140 nM
7,"Cc1ncc(-c2ccc3[nH]c(=O)[nH]c3c2)cc1NCc1ccc(F)cc1 [Compound 13d, 5-(5-((4-Fluorobenzyl)amino)-6-methylpyridin-3-yl)-1H-benzo[d]imidazol-2(3H)-one]",240 nM
8,"O=C1Cc2cc(-c3cncc(NCc4ccccc4)c3)ccc2N1 [Compound 13e, 5-(5-(Benzylamino)pyridin-3-yl)indolin-2-one]",1.3 nM and 1.9 nM
9,"CC(Nc1cncc(-c2ccc3[nH]c(=O)[nH]c3c2)c1)c1ccccc1 (stereo not shown) [Compound 30j, 5-(5-((1-Phenylethyl)amino)pyridin-3-yl)-1H-benzo[d]imidazol-2(3H)-one]",0.71 nM and 1.1 nM
10,"CC(Nc1cncc(-c2ccc3[nH]c(=O)n(C)c3c2)c1)c1ccccc1 (stereo not shown) [Compound 30n, 1-Methyl-6-(5-((1-phenylethyl)amino)pyridin-3-yl)-1H-benzo[d]imidazol-2(3H)-one]",0.81 nM

# The next lines start with the values.
row,Kd,Structure (SMILES)
1,2.3 nM and 2.9 nM and 1.1 nM,"O=c1[nH]c2ccc(-c3cncc(NCc4ccccc4)c3)cc2[nH]1 [Compound 13a, 5-(5-(Benzylamino)pyridin-3-yl)-1H-benzo[d]imidazol-2(3H)-one]"
2,2.9 nM and 1.8 nM,"O=c1[nH]c2ccc(-c3cncc(NCc4ccc(F)cc4)c3)cc2[nH]1 [Compound 13b, 5-(5-((4-Fluorobenzyl)amino)pyridin-3-yl)-1H-benzo[d]imidazol-2(3H)-one]"
3,1.2 nM,"O=c1[nH]c2ccc(-c3cncc(NCc4ccccc4F)c3)cc2[nH]1 [Compound 30a, 5-(5-((2-Fluorobenzyl)amino)pyridin-3-yl)-1H-benzo[d]imidazol-2(3H)-one]"
4,1.2 nM,"O=c1[nH]c2ccc(-c3cncc(NCc4cccc(F)c4)c3)cc2[nH]1 [Compound 30b, 5-(5-((3-Fluorobenzyl)amino)pyridin-3-yl)-1H-benzo[d]imidazol-2(3H)-one]"
5,1.3 nM,"O=c1[nH]c2ccc(-c3cncc(NCc4ccccc4Cl)c3)cc2[nH]1 [Compound 30c, 5-(5-((2-Chlorobenzyl)amino)pyridin-3-yl)-1H-benzo[d]imidazol-2(3H)-one]"
6,23 nM,"O=c1[nH]c2ccc(-c3cncc(NCc4ccc(Cl)cc4)c3)cc2[nH]1 [Compound 30e, 5-(5-((4-Chlorobenzyl)amino)pyridin-3-yl)-1H-benzo[d]imidazol-2(3H)-one]"
7,5.8 nM,"N#Cc1cccc(CNc2cncc(-c3ccc4[nH]c(=O)[nH]c4c3)c2)c1 [Compound 30f, 3-(((5-(2-Oxo-2,3-dihydro-1H-benzo[d]imidazol-5-yl)pyridin-3-yl)amino)methyl)benzonitrile]"
8,31 nM,"N#Cc1ccc(CNc2cncc(-c3ccc4[nH]c(=O)[nH]c4c3)c2)cc1 [Compound 30g, 4-(((5-(2-Oxo-2,3-dihydro-1H-benzo[d]imidazol-5-yl)pyridin-3-yl)amino)methyl)benzonitrile]"
9,1200 nM,"O=c1[nH]c2ccc(-c3cncc(NCc4ccc(-c5ccccc5)cc4)c3)cc2[nH]1 [Compound 30h, 5-(5-(([1,1′-Biphenyl]-4-ylmethyl)amino)pyridin-3-yl)-1H-benzo[d]imidazol-2(3H)-one]"
10,4.3 nM,"O=c1[nH]c2ccc(-c3cncc(NCCc4ccccc4)c3)cc2[nH]1 [Compound 30k, 5-(5-(Phenethylamino)pyridin-3-yl)-1H-benzo[d]imidazol-2(3H)-one]"
11,1.2 nM,"O=c1[nH]c2ccc(-c3cncc(NCc4ccccn4)c3)cc2[nH]1 [Compound 31a, 5-(5-((Pyridin-2-ylmethyl)amino)pyridin-3-yl)-1H-benzo[d]imidazol-2(3H)-one]"
12,2.1 nM,"O=c1[nH]c2ccc(-c3cncc(NCc4cccnc4)c3)cc2[nH]1 [Compound 31b, 5-(5-((Pyridin-3-ylmethyl)amino)pyridin-3-yl)-1H-benzo[d]imidazol-2(3H)-one]"
13,3.9 nM,"O=c1[nH]c2ccc(-c3cncc(NCc4ccncc4)c3)cc2[nH]1 [Compound 31c, 5-(5-((Pyridin-4-ylmethyl)amino)pyridin-3-yl)-1H-benzo[d]imidazol-2(3H)-one]"
14,28 nM,"O=c1[nH]c2ccc(-c3cncc(NCc4cccc5ccccc45)c3)cc2[nH]1 [Compound 31d, 5-(5-((Naphthalen-1-ylmethyl)amino)pyridin-3-yl)-1H-benzo[d]imidazol-2(3H)-one]"
15,100 nM,"O=c1[nH]c2ccc(-c3cncc(NCc4ccc5ccccc5c4)c3)cc2[nH]1 [Compound 31e, 5-(5-((Naphthalen-2-ylmethyl)amino)pyridin-3-yl)-1H-benzo[d]imidazol-2(3H)-one]"
16,9.9 nM,"NC(=O)c1cccc(CNc2cncc(-c3ccc4[nH]c(=O)[nH]c4c3)c2)c1 [Compound 33a, 3-(((5-(2-Oxo-2,3-dihydro-1H-benzo[d]imidazol-5-yl)pyridin-3-yl)amino)methyl)benzamide]"
